The record followed here is US20240182521A1, “CELL-PENETRATING PEPTIDE VARIANT AND USE THEREOF” (REGEN INNOPHARM INC., priority 2021, published 2024).

In assay [1] the test system is diabetic model mice (db/db). Briefly: Blood vessel formation in diabetic wounds (histology, day 7). It is filed as in vivo, mouse. As to conditions: once daily, day 7 after wounding. The procedure: Since diabetic ulcers were hardly treated by insufficient vascular supply due to impaired angiogenesis and ischemic necrosis, it was confirmed whether the LPX peptide contributed to blood vessel formation in diabetic wound healing. Specifically, diabetic model mice (db/db) were wounded and then treated with LPX 103 or EGF once daily, and the recovery of angiogenesis was analyzed on day 7 after wounding, and in order to visualize the extravasation of red blood cells within the tissue, the wound and entrance (red dotted box) of each group were magnified and images were confirmed.

The test system of assay [2] is NIH3T3 cells. Briefly: Cell migration effects, Table 1. In kind it is cell-based, mouse. The settings on record: vehicle = 1. The procedure: Various variants of the LPX peptides were prepared as illustrated in FIG. 18. Specifically, various constructs (26 constructs including 101) were prepared by adding various mutations (substitution of a CPP region, amino acid mutation of an RNA binding portion and a zinc finger structure, and addition of his-tag) to the structure of LPX101 in FIG. 19 (FIG. 20).

Assay [3] relates to NIH3T3 cell line and mouse mesenchymal stem cells (mMSCs). Briefly: Cell penetrating effect (FACS, confocal microscopy) of FITC-attached peptides. It is filed as cell-based. The settings on record: compared to LPX101 (2 μM). The text has this: A cell penetrating effect was confirmed in penetrating peptides LPX101 (SEQ ID NO: 11), LPX102 (SEQ ID NO: 12), and LPX103 (SEQ ID NO: 13) having three structures including a signal peptide, an RNA binding affinity residue, and an RNA binding residue (FIG. 1), and two zinc finger motifs. Specifically, in order to measure cell penetrating efficiency, respective peptides that may have been attached to the cell membrane surface were removed by applying a Heparin & Trypsin washing method used in a Keplan group [Kaplan I M, Wadia J S, Dowdy S F (2005) Cationic TAT peptide transduction domain enters cells by macropinocytosis. J Controlled release 102: 247-253] to a NIH3T3 cell line and mouse mesenchymal stem cells (mMSCs). […] Then, the cells were washed three times with PBS and detached with trypsin, and then FACS analysis was performed. In addition, whether each peptide actually existed in the nucleus or cytoplasm of the cell was confirmed by confocal microscopy after 18 hours of peptide treatment, and membrane binding was labeled with PKH.

The subject of assay [4] is NIH3T3 cells. Nature of the assay: Intracellular stability, cell proliferation and migration of RNA binding / zinc finger region variants. It is filed as cell-based, mouse. How it is done:
The protein stability of variants with mutations in the RNA binding region and the zinc finger region was confirmed. Specifically, LPX103 variants with mutated amino acid residues for RNA binding during cell migration were treated with NIH3T3 cells for 1 day, respectively, and based on the molecular modeling program, the intracellular stabilization effect of each peptide was analyzed after 72 hours. The mutation energy of each amino acid residue was confirmed, and variants that may cause<−1 Kcal/mol due to substitution were selected as potential mutations that may increase the stability and activity of the peptide (FIGS. 23 and 24). The effects of the selected variants on cell proliferation and cell migration were confirmed in NIH3T3 cells (FIG. 25), and as a result, mutations in the RNA binding region and the zinc finger region that improved or decreased the stability of the peptide in the cell were confirmed (FIG. 26).

In assay [5] the test system is STZ-induced diabetic mouse model. Nature of the assay: Wound healing in STZ-induced diabetic mouse model. It is filed as in vivo. As to conditions: 2 mg/ml (20 μl). The procedure:
(§1) The wound healing effects of LPX101, LPX102, and LPX103 were confirmed in an STZ-induced diabetic mouse model. […] Thereafter, according to a schedule shown in FIG. 12A, PBS (negative control), EGF (positive control) 50 μg/ml, LPX101 2 mg/ml (20 μl), LPX102 and LPX103 (2 mg/ml (20 μl)) were treated, respectively, and then the effect of wound healing in a diabetes-induced mouse model was confirmed through imaging, re-epithelialization, and diabetes phenotypes (hyperglycemia and impaired glucose tolerance test (IPGTT)) (n=10 for each group, *; p<0.05). Additionally, to compare the regenerative activity of LPX peptides in a diabetic mouse model, wound healing kinetics measured by a % non-epithelialized area to an initial wound area (n=8 for each group), and quantification of re-epithelialization analyzed as % of a re-epithelialized area to the initial wound area were confirmed.

A further assay relates to diabetic mice (db/db). Briefly: Histological evaluation of wound re-epithelialization (H/E, day 10). As to conditions: day 10 after initial injury. It is filed as in vivo, mouse. From the text:
In order to histologically evaluate wound re-epithelialization in diabetic mice by LPX peptides 101, 102 and 103, wound tissues from diabetic mice (db/db) treated by each LPX were H/E stained on day 10 after initial injury and confirmed under a microscope (50X and 100x).

Assay [6] concerns diabetes model mice (db/db). Nature of the assay: Diabetic wound healing in diabetes model mice (db/db). In kind it is in vivo, mouse. As to conditions: db/db mouse model. How it is done: The skins of wild type (WT) mice and diabetes model mice (db/db) (n=14 each) were punched with an 8 mm diameter puncher and treated with LPX101 (2 mg/ml, 20 μl) or PBS daily for 14 days and subjected to wound dressing. The wound healing effect was confirmed by analyzing an initial wound area and a re-epithelialization area using ImageJ (mean SEM n=3, *; p<0.05). In addition, the wound healing effect in wounds treated with LPX101 was histologically evaluated. Specifically, diabetic mice (db/db) were stained with H/E or trichrome at 7 and 14 days after wound induction and then confirmed under a microscope, and re-epithelialization and granulation tissue were quantified using ImageJ (n=3, ***; p<0.001). In addition, the wounds of db/db mice were treated with LPX101, and the tissue epidermis after 14 days was histologically analyzed.
as §1

Assay [7] has as its system diabetic human epidermal keratinocyte (DHEK). Briefly: Cell migration across a scratched boundary. In kind it is cell-based. The settings on record: DHEK cells; at lower concentrations than LPX101. The procedure:
An effect of LPX101 peptide on cell growth was confirmed in a NIH3T3 cell line, and the effects of LPX101, LPX102, and LPX103 peptides on cell migration were confirmed in diabetic human epidermal keratinocyte (DHEK) as a diabetic cell line. Specifically, mMSC or NIH3T3 cells were treated with the LPX101 peptide, incubated for 1 hour, and then washed. A % increase in cell growth by LPX treatment was confirmed by measuring the number of cells after 3 days of treatment and calculating a relative proliferation rate as % compared to a control group (n=3). Additionally, in order to confirm the cell migration effect, DHEK cells were treated with LPX101, LPX102, and LPX103 peptides, incubated for 1 hour, and then washed. Thereafter, the migration of cells across a scratched boundary was measured 72 hours after treatment. The number of cells that migrated across a scratch line was measured by image analysis using ImageJ.

Assay [8] concerns diabetic mouse model (db/db). Nature of the assay: Diabetic wound healing by combined treatment with EGF. It is filed as in vivo. As to conditions: db/db mice, 8 mm punch wound. From the text:
The diabetic wound healing effect by combined treatment with LPX peptide and EGF was confirmed.

In assay [9] the test system is NIH3T3 cells. Briefly: Glycolysis, extracellular acidification rate (ECAR), Seahorse XF analyzer. In kind it is cell-based, mouse. How it is done:
NIH3T3 cells were incubated in a glucose-free medium for 1 day and then sequentially treated with glucose, oligomycin, and 2-DG, and an extracellular acidification rate (ECAR) was measured as a measure of lactate production using a Seahorse extracellular flux (XF) analyzer and quantification and profile of ECAR were confirmed in cells treated with LPX peptide (Mean SEM n=3, *; p<0.05).

In the case of “LPX103: cell-penetrating peptide consisting of amino acid sequence SEQ ID NO: 13 (GSERRPKGKSMQKRRSKGDRCYNCGGLDHHAKECKL; LPX103)”, in assay [1], the “capillary formation compared to EGF” value is reported as “more mature capillary formation” and the “hemorrhage (extravasation of RBC) compared to EGF” value is “less hemorrhage (extravasation of RBC)”. The “Effects on cell migration (3 expts)” value in the assay on NIH3T3 cells [2] (1 uM) was 1.3. Also, the “Effects on cell migration (3 expts)” value with NIH3T3 cells [2] (5 uM) worked out at 1.3. The “cell permeability compared to LPX101” value in assay [3] was “high cell permeability similar to LPX101”. Also, the “stability and biological activity” value with NIH3T3 cells [4] is “high stability and biological activity”. Besides, the “wound healing effect compared to LPX101” value in [5] is “better effects than LPX101”. The “re-epithelialization of diabetic wounds (histology)” value in the assay on diabetic mice (db/db) is given as “significantly improved re-epithelialization”. Further, in [6], the “diabetic wound healing effect (wound healing kinetics and re-epithelialization) compared to LPX101” value is “better diabetic wound healing effect than LPX101”. For the same substance, in assay [7], the “cell migration compared to LPX101” value is “promoted cell migration to a similar extent to LPX101”. The “diabetic wound healing effect in combination with EGF” value in assay [8] is listed as “improved when treated in combination with EGF”. Also, in the assay on NIH3T3 cells [9], the “glucose metabolism (glycolysis), ECAR” value is listed as “promoted glucose metabolism (glycolysis)”.
